Each block holds one compound with its values, some of them ahead of it.
Experiments:
[1] = system: mouse; details: mouse models ref 5; cited from earlier work
[2] = system: rat; details: rat models ref 5; cited from earlier work
[3] = target: T1, human δ receptor (hDOPr) (Homo sapiens, UniProt P41143); experiment: [3H]diprenorphine radioligand; assay type: binding
[4] = target: T1, human δ receptor (hDOPr); experiment: cell-based
[5] = Nephelometry; assay type: physicochemical
[6] = target: δ receptor (Homo sapiens, UniProt P41143); experiment: PathHunter β-arrestin recruitment assay in CHO-OPRD1 cells; assay type: cell-based
Chain of δ receptor (P41143 whole entry): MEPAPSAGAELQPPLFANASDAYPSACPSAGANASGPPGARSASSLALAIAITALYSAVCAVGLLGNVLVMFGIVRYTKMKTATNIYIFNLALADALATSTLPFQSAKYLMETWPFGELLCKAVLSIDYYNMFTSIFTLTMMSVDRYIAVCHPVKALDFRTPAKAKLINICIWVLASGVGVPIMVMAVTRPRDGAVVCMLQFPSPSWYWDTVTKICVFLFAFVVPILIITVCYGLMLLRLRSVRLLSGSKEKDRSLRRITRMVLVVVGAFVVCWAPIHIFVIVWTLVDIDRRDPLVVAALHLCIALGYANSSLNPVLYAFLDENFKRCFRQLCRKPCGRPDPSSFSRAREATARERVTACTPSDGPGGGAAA

[7] = HBSS + 25 mM HEPES and 10% FBS (β-arrestin assay buffer)
[8] = phosphate buffered saline solution, data not shown

T1 sequence (P41143 whole entry): as above

Structure (SMILES): CCN(CC)C(=O)c1ccc(C2=CC3(CCNCC3)Oc3cccc(O)c32)cc1 [ADL5859, N,N-diethyl-4-(5-hydroxyspiro-[chromene-2,4′-piperidine]-4-yl)benzamide]
seizures [1]: no seizures
seizures [2]: no seizures

Structure (SMILES): CN1CC[C@]2(c3cccc(O)c3)Cc3nc4ccccc4cc3C[C@H]2C1 [TAN67]
Ki [3]: 10 nM
affinity ratio (vehicle Ki)/(2 Ki) ([3]; effect of 2 (10 μM) on the orthosteric agonist's Ki): 3
Kd [4]: 3.98 nM

Structure (SMILES): Cc1ccccc1COc1ccc(C2C3=C(CC(C)(C)CC3=O)OC3=C2C(=O)CC(C)(C)C3)cc1 [compound 2, 3,3,6,6-tetramethyl-9-(4-((2-methylbenzyl)oxy)phenyl)-3,4,5,6,7,9-hexahydro-1H-xanthene-1,8(2H)-dione]
concentrations showing particulate matter [5, 7]: above 3 μM
concentrations showing particulate matter [5, 8]: above 1 μM

Structure (SMILES): CC1(C)CC(=O)C2=C(C1)OC1=C(C(=O)CC(C)(C)C1)C2c1ccc(OCc2ccc(F)cc2)cc1 [compound 7]
PAM activity at the δ receptor ([6]; PAM mode, EC20 of leu-enkephalin): robust potentiation

The next lines start with the values.

selectivity μ/δ ([6]; potency ratio of PAM mode EC50 values, β-arrestin recruitment): >33
Structure (SMILES): CC1(C)CC(=O)C2=C(C1)OC1=C(C(=O)CC(C)(C)C1)C2c1ccc(OCc2ccccc2Cl)cc1 [compound 8]

concentrations showing particulate matter [5, 7]: above 3 μM
concentrations showing particulate matter [5, 8]: above 1 μM
Structure (SMILES): CC1(C)CC(=O)C2=C(C1)OC1=C(C(=O)CC(C)(C)C1)C2c1ccc(OCc2ccccc2Br)cc1 [compound 10, 9-(4-((2-Bromobenzyl)oxy)phenyl)-3,3,6,6-tetramethyl-3,4,5,6,7,9-hexahydro-1H-xanthene-1,8(2H)-dione]
